The text below walks through data of patent US11008304B2, “Tetrazole containing apoptosis signal-regulating kinase 1 inhibitors and methods of use thereof” (ENANTA PHARMACEUTICALS, INC., priority 2018, dated 2021).

Molecules are shown by their SMILES.

ASK1 kinase, sequence (Q99683 whole entry): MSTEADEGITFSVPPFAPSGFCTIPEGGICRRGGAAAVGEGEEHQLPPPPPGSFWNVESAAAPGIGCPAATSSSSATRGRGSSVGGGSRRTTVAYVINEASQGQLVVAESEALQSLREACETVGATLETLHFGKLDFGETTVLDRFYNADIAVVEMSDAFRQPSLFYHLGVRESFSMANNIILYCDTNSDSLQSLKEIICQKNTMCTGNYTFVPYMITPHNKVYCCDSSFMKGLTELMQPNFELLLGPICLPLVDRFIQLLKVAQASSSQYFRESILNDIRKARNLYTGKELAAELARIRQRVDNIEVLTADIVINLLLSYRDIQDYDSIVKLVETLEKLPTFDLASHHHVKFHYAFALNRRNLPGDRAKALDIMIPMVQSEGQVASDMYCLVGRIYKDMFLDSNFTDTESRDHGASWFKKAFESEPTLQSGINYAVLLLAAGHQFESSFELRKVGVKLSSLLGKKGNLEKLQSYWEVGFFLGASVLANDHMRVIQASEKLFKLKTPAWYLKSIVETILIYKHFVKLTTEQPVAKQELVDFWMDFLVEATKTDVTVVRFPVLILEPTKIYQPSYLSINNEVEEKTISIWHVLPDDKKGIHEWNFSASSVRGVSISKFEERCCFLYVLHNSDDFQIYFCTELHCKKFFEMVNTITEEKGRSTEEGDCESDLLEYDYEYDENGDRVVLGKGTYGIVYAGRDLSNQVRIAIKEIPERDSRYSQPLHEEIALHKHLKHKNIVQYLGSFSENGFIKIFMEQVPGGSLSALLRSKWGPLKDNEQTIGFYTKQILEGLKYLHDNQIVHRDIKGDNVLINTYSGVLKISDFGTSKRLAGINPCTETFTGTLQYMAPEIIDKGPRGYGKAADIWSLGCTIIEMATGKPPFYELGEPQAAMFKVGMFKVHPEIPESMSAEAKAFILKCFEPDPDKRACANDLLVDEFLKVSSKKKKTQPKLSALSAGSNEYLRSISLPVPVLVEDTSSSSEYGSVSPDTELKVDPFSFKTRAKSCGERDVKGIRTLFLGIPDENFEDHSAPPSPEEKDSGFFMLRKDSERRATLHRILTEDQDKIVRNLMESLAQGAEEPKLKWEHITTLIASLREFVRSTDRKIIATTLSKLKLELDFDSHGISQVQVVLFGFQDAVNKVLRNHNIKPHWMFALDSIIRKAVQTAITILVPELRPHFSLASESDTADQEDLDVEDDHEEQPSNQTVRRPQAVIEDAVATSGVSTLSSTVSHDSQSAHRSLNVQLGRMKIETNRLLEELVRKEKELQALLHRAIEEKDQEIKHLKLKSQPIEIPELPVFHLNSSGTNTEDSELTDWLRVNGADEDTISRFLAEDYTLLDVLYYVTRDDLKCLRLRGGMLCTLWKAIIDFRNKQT

The test addresses ASK1 kinase (Homo sapiens (Human), UniProt Q99683). The experiment in a line: HTRF KinEASE assay of ASK1 kinase activity inhibition. The format is biochemical. The following applies: 5 nM ASK1, 1 uM STK3 peptide substrate, 100 uM ATP, TR-FRET readout. As for the experimental part:
The ability (IC50) of compounds to inhibit ASK1 kinase activity was determined by HTRF® KinEASE™ Assay System. ASK1 was purchased from Thermofisher (Catalogue #PV4011), ATP was purchased from Sigma (Catalogue #A7699), HTRF® KinEASE™ Assay System was obtained from Cisbio (Bedford, Mass.). ½ Area plate was purchased from Perkin Elmer (Catalogue ##6005560). HTRF® KinEASE™-STK is a generic method for measuring serine/threonine kinase activities using a time-resolved fluorescence resonance energy transfer (TR-FRET) immunoassay. The IC50 value for each compound was determined in the presence of compound (various concentration from 0 to 10 μM) and a fixed amount of ATP and peptide substrates. The test compound, 1 uM STK3 peptide substrate, and 5 nM of ASK1 kinase are incubated with kinase reaction buffer containing 50 mM HEPES pH 7.5, 0.01% BRIJ-35, 10 mM MgCl2, and 1 mM EGTA for 30 minutes. 100 uM ATP is added to start kinase reaction and incubated for 3 hours. The STK3-antibody labeled with Eu^3+-Cryptate and 125 nM streptavidin-XL665 are mixed in a single addition with stop reagents provided by the Cisbio kit used to stop the kinase reaction. Fluorescence is detected using an Envision Multilabeled 2014 reader from PerkinElmer. The Fluorescence is measured at 615 nm (Cryptate) and 665 nm (XL665) and a ratio of 665 nm/615 nm is calculated for each well. The resulting TR-FRET is proportional to the phosphorylation level. Staurosporine was used as the positive control. IC50 was determined by XLfit 5.3. By using above method, the inhibition of ASK1 was tested for the compound of formula (I). IC50 ranges are as follows: A<1 nM; 1 nM<B<10 nM; 10 nM<C<100 nM; 100 nM<D<1 μM; E>1 μM.
A general note: In TR-FRET formats the signal depends on donor and acceptor labels being close together.
Molecule `Cc1cnc(C(=O)Nc2cccc(-c3nnnn3[C@H](C)CO)n2)cc1-c1cnc(C2CC2)s1` [Example 43] gave an IC50 of 1 to 10 nM. As for `COc1cc(C)c(-c2cnn(C3CC3)c2)cc1C(=O)Nc1cccc(-n2nnnc2C(C)C)n1` [Example 76], the figure is under 1 nM. Take `CC(C)n1nnnc1-c1nc(NC(=O)c2cc(-c3cnn(C4CC4)c3)c(N3CCCCC3)cn2)cs1` [Example 11]: the IC50 lay in the range of 10 to 100 nM. Turning to `CC(C)n1nnnc1-c1cccc(NC(=O)c2cc(-c3cnn(C4CC4)c3)c(N3CCCCC3)cn2)n1` [Example 5], the IC50 was in the range of 10 to 100 nM. For the molecule `COc1cc(C)c(-c2ccn(C(C)C)n2)cc1C(=O)Nc1cccc(-n2nnnc2C(C)C)n1` [Example 79], the IC50 was in the range of 10 to 100 nM. In the case of `Cc1cc(F)c(C(=O)Nc2cccc(-c3nnnn3[C@H]3CCC[C@@H]3O)n2)cc1-c1cnn(C2CC2)c1` [Example 83], the concentration for half-maximal inhibition (IC50) lay within 1 to 10 nM. In the case of `Cc1cc(F)c(C(=O)Nc2cccc(-c3nnnn3C(C)C)n2)cc1-c1cc(C2CC2)on1` [Example 71], the IC50 lay within 10 to 100 nM. As for `Cc1cc(F)c(C(=O)Nc2cccc(-c3nnnn3[C@H](C)CO)n2)cc1-c1ccc(C2CC2)s1` [Example 70], the figure is 1 to 10 nM; as for `Cc1cnc(C(=O)Nc2cccc(-c3nnnn3C(C)C)n2)cc1-c1cnn(C(C)(C)C)c1` [Example 20], 1 to 10 nM; as for `Cc1cc(F)c(C(=O)Nc2cccc(-n3nnnc3C(C)C)n2)cc1-c1cn(C(C)C)cn1` [Example 62], over 1000 nM. `Cc1cc(F)c(C(=O)Nc2cccc(-c3nnnn3C(C)C)n2)cc1-c1cnn(C(C)(C)C)c1` [Example 52] showed an IC50 of 1 to 10 nM. As to `Cc1cnc(C(=O)Nc2cccc(-c3nnnn3[C@H](C)CO)n2)cc1-c1ccc(C2CC2)s1` [Example 45], the IC50 lay within 1 to 10 nM.

The molecule `Cc1cnc(C(=O)Nc2cccc(-n3nnnc3C(C)C)n2)cc1-c1cnn(C(C)C)c1` [Example 27] returned an IC50 of 1 to 10 nM. In turn, `CC(C)n1nnnc1-c1cccc(NC(=O)c2cc(-c3cnn(C4CC4)c3)c(N3CCN(C)CC3)cn2)n1` [Example 7] returned an IC50 of 1 to 10 nM. As for `Cc1cnc(C(=O)Nc2cccc(-c3nnnn3[C@H](C)CO)n2)cc1-c1cn(C(C)C)cn1` [Example 25], the figure is 1 to 10 nM. With `CC(C)n1nnnc1-c1cccc(NC(=O)c2cc(-c3cnn(C4CC4)c3)c(C(F)(F)F)cn2)n1` [Example 14], the IC50 was 10 to 100 nM.

`Cc1cc(F)c(C(=O)Nc2cccc(-c3nnnn3C(C)C)n2)cc1-c1ccccn1` [Example 64] returned an IC50 of 100 to 1000 nM. As for `Cc1cc(F)c(C(=O)Nc2cccc(-c3nnnn3C(C)C)n2)cc1-c1ccn(C(C)C)n1` [Example 58], the figure is 10 to 100 nM. `Cc1cnc(C(=O)Nc2cccc(-c3nnnn3C(C)C)n2)cc1-c1cnn(C(C)C)c1` [Example 26] registered an IC50 of 1 to 10 nM.

`Cc1cnc(C(=O)Nc2cccc(-c3nnnn3C(C)C)n2)cc1-c1cnn(C(F)(F)F)c1` [Example 30]: the IC50 is 10 to 100 nM. As for `Cc1nc(-c2cc(C(=O)Nc3cccc(-c4nnnn4C(C)C)n3)c(F)cc2C)cs1` [Example 68], the figure is 100 to 1000 nM; as for `Cc1cc(F)c(C(=O)Nc2cccc(-c3nnnn3[C@H](C)CO)n2)cc1-c1cn(C(C)C)cn1` [Example 63], 10 to 100 nM; as for `Cc1cc(F)c(C(=O)Nc2cccc(-c3nnnn3[C@H](C)CO)n2)cc1-c1cnn(C(C)(C)C)c1` [Example 54], 1 to 10 nM. As for `Cc1nc(-c2cc(C(=O)Nc3cccc(-c4nnnn4C(C)C)n3)ncc2C)cs1` [Example 40], the figure is 10 to 100 nM; as for `Cc1cnc(C(=O)Nc2cccc(-c3nnnn3C(C)C)n2)cc1-c1cn(C(C)C)cn1` [Example 23], 10 to 100 nM; as for `Cc1cc(F)c(C(=O)Nc2cccc(-c3nnnn3[C@@H]3CCC[C@@H]3O)n2)cc1-c1cnn(C2CC2)c1` [Example 84], 1 to 10 nM.

As for `COc1cc(C)c(-c2cnn(C3CC3)c2)cc1C(=O)Nc1cccc(-c2nnnn2[C@H](C)CO)n1` [Example 77, 5-(1-cyclopropyl-1H-pyrazol-4-yl)-N-(6-[1-[(2R)-1-hydroxypropan-2-yl]-1H-1,2,3,4-tetrazol-5-yl]pyridin-2-yl)-2-methoxy-4-methylbenzamide], the IC50 is under 1 nM.

With `Cc1cnc(C(=O)Nc2cccc(-c3nnnn3C(C)C)n2)cc1-c1cnn(C2CC2)c1` [Example 2], the IC50 lay within 10 to 100 nM. As for `Cc1cnc(C(=O)Nc2cccc(-c3nnnn3C(C)C)n2)cc1-c1ccncc1` [Example 38], the figure is 10 to 100 nM; as for `CC(C)n1nnnc1-c1nc(NC(=O)c2cc(-c3cnn(C4CC4)c3)c(F)cn2)cs1` [Example 8], 10 to 100 nM; as for `CC(C)n1nnnc1-c1cccc(NC(=O)c2cc(-c3cnn(C4CC4)c3)c(C(F)F)cn2)n1` [Example 18], 1 to 10 nM. As for `Cc1cc(F)c(C(=O)Nc2cccc(-c3nnnn3[C@H](C)CO)n2)cc1-c1cnn(C(F)(F)F)c1` [Example 57], the figure is 1 to 10 nM.

`Cc1cnc(C(=O)Nc2cccc(-n3nnnc3C(C)C)n2)cc1-c1cnn(C(C)(C)C)c1` [Example 21] showed an IC50 of 10 to 100 nM. For the molecule `Cc1cnc(C(=O)Nc2cccc(-c3nnnn3[C@H](C)CO)n2)cc1-c1cnn(C(C)(C)C)c1` [Example 22], the IC50 fell in the range of 1 to 10 nM.

For the molecule `Cc1cnc(C(=O)Nc2cccc(-n3nnnc3C(C)C)n2)cc1-c1cn(C(C)C)cn1` [Example 24], the IC50 was over 1000 nM. As to `Cc1cc(F)c(C(=O)Nc2cccc(-c3nnnn3[C@H](C)CO)n2)cc1-c1cnn(C2CC2)c1` [Example 47], the concentration for half-maximal inhibition (IC50) was in the range of 1 to 10 nM. `Cc1cnc(C(=O)Nc2cccc(-c3nnnn3[C@H](C)CO)n2)cc1-c1cccnc1` [Example 41] gave an IC50 of 1 to 10 nM.

Molecule `CC(C)n1nnnc1-c1nc(NC(=O)c2cc(-c3cnn(C4CC4)c3)c(N3CCCC3)cn2)cs1` [Example 9] gave an IC50 of 1 to 10 nM.

`Cc1cnc(C(=O)Nc2cccc(-c3nnnn3[C@H](C)CO)n2)cc1-c1cnn(C(C)C)c1` [Example 28] showed an IC50 of 1 to 10 nM. As for `Cc1cnc(C(=O)Nc2cccc(-c3nnnn3[C@H](C)CO)n2)cc1-c1cnn(C(F)(F)F)c1` [Example 32], the figure is 1 to 10 nM.

`COc1cc(C)c(-c2ccn(C(C)C)n2)cc1C(=O)Nc1cccc(-c2nnnn2[C@H](C)CO)n1` [Example 80] yielded an IC50 of under 1 nM.

In the case of `Cc1cc(F)c(C(=O)Nc2cccc(-n3nnnc3C(C)C)n2)cc1-c1cnn(C(C)C)c1` [Example 51], the IC50 lay within 1 to 10 nM. Take `COc1cc(C)c(-c2ccn(C(C)C)n2)cc1C(=O)Nc1cccc(-c2nnnn2C(C)C)n1` [Example 78]: the IC50 was 1 to 10 nM. As for `C[C@H](CO)n1nnnc1-c1cccc(NC(=O)c2cc(-c3cnn(C4CC4)c3)c(C(F)F)cn2)n1` [Example 29], the figure is 1 to 10 nM; as for `CC(C)n1nnnc1-c1nc(NC(=O)c2cc(-c3cnn(C4CC4)c3)c(N3CCOCC3)cn2)cs1` [Example 10], 1 to 10 nM. Molecule `Cc1cc(F)c(C(=O)Nc2cccc(-n3nnnc3C(C)C)n2)cc1-c1ccn(C(C)C)n1` [Example 59] showed a concentration for half-maximal inhibition (IC50) of over 1000 nM.

In turn, `Cc1ncc(-c2cc(C(=O)Nc3cccc(-c4nnnn4C(C)C)n3)ncc2C)s1` [Example 39] displayed an IC50 of 1 to 10 nM. As for `Cc1cc(F)c(C(=O)Nc2cccc(-c3nnnn3C(C)C)n2)cc1-c1cn(C(C)C)cn1` [Example 61], the figure is 10 to 100 nM; as for `COc1cc(C)c(-c2cnn(C3CC3)c2)cc1C(=O)Nc1cccc(-c2nnnn2C(C)C)n1` [Example 75], under 1 nM. As for `Cc1cnc(C(=O)Nc2cccc(-c3nnnn3C(C)C)n2)cc1-c1ccn(C(C)C)n1` [Example 33], the figure is 10 to 100 nM. As for `Cc1cnc(C(=O)Nc2cccc(-n3nnnc3C(C)C)n2)cc1-c1cnn(C2CC2)c1` [Example 17], the figure is 10 to 100 nM. Turning to `Cc1cnc(C(=O)Nc2cccc(-c3nnnn3C(C)C)n2)cc1-c1cccnc1` [Example 37], the IC50 fell in the range of 1 to 10 nM.

`COc1cc(C)c(-c2cnn(C)c2)cc1C(=O)Nc1cccc(-n2nnnc2C(C)C)n1` [Example 74] had an IC50 of 1 to 10 nM. `CC(C)n1nnnc1-c1nc(NC(=O)c2cc(-c3cnn(C4CC4)c3)c(C(F)F)cn2)cs1` [Example 19] displayed a concentration for half-maximal inhibition (IC50) of 1 to 10 nM. The molecule `C[C@H](CO)n1nnnc1-c1cccc(NC(=O)c2cc(-c3cnn(C4CC4)c3)c(C(F)(F)F)cn2)n1` [Example 16] registered an IC50 of 1 to 10 nM.

`Cc1cc(F)c(C(=O)Nc2cccc(-c3nnnn3C(C)C)n2)cc1-c1cnn(C(C)C)c1` [Example 49]: the IC50 lay within 1 to 10 nM. As for `CC(C)n1nnnc1-c1cccc(NC(=O)c2cc(-c3cnn(C4CC4)c3)ccn2)n1` [Example 1], the figure is 10 to 100 nM; as for `Cc1cnc(C(=O)Nc2cccc(-n3nnnc3C(C)C)n2)cc1-c1cnn(C(F)(F)F)c1` [Example 31], over 1000 nM. The molecule `Cc1cc(F)c(C(=O)Nc2cccc(-c3nnnn3C(C)C)n2)cc1-c1cnn(C(F)(F)F)c1` [Example 55] came in with an IC50 of 10 to 100 nM.

In general, IC50 refers to the concentration that inhibits the measured activity by half. A higher IC50 goes with a need for much substance.
